These results are taken from patent US20250346599A1, “TRICYCLIC PHTHALAZINONE PARP INHIBITORS AND METHODS OF USE” (Valo Health, Inc., priority 2022, published 2025).

SMILES strings stand for the structures. pIC50: −log10 of the molar value.

For series [1] the following is noted: literature statement; cited from earlier work.
In a further series the target is PARP1 enzyme (Homo sapiens (Human), UniProt P09874). The series can be described thus: PARP Mass Spectroscopy Assay (PARP1 enzymatic assay, nicotinamide detection). The series is classed as biochemical. The conditions noted are these: 5 nM PARP1, 5 uM β-NAD, 60 min at RT, NAM by mass spectrometry. The method, boiled down: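 Compounds were pre-incubated 30 min at RT with 5 nM PARP1 and core histones, then reacted 60 min at RT with 5 uM β-NAD and activated DNA in Tris pH 8.0 buffer with MgCl2, NaCl, Triton X-100 and DTT. The reaction was quenched with 3ABA, and nicotinamide was measured by mass spectrometry. IC50 came from a four-parameter fit of 10-point curves.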
PARP1 enzyme, sequence (P09874 whole entry): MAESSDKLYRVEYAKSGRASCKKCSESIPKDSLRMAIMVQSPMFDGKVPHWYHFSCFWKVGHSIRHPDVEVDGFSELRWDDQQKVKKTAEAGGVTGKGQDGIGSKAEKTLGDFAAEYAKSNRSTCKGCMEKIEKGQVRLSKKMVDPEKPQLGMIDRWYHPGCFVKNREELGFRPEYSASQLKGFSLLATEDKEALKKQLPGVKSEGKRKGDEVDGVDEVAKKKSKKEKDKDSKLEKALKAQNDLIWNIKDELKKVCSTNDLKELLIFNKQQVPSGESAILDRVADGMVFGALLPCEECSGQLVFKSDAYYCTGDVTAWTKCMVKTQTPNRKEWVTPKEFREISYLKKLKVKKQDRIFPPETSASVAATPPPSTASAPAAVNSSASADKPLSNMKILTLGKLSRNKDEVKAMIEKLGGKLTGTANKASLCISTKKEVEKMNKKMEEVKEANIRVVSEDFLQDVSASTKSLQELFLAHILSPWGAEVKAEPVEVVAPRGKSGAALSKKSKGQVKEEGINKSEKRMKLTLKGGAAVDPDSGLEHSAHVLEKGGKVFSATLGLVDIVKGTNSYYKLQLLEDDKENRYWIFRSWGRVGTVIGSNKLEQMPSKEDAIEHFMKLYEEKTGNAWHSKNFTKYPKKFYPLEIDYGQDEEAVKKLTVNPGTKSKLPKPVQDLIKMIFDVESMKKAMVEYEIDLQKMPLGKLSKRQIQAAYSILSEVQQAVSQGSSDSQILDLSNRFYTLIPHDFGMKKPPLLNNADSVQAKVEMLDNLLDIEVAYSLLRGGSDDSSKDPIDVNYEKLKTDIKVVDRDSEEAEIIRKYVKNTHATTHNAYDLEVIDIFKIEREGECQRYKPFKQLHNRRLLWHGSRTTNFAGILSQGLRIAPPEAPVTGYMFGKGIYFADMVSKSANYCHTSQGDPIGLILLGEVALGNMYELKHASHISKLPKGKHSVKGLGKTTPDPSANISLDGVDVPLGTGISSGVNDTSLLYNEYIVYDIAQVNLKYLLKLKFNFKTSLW

Series [2] deals with human MDR1 (P-glycoprotein; P-gp) (Homo sapiens (Human), UniProt P08183). The series can be described thus: bi-directional MDCK-MDR1 permeability assay. The series is classed as in vitro ADME. To be noted: for Papp A→B: dog; for Papp A→B / efflux ratio: MDCK-MDR1; for Papp A→B / MDCK-MDR1 Papp A→B (10^−6 cm/s): apical to basolateral direction; for efflux ratio: human, read-out: MDCK-MDR1 ER; for efflux ratio / MDCK-MDR1 ER: efflux ratio B→A/A→B. From the text:
The bi-directional assay containing a Mandin Darby canine kidney (MDCK) cell line transfected with human MDR1 gene (P-glycoprotein; P-gp) designed to overexpress the MDR1 efflux transporter, a major efflux transporter at the blood brain barrier (BBB), uses an established method that measures the rate of flux of a compound across polarized cell monolayers. As well appreciated in the art, the data generated from the MDCK-MDR1 permeability assay may be used to predict in vivo absorption of drugs. The bi-directional MDCK-MDR1 permeability assay can identify and quantify levels of active efflux. Screening compounds in both the apical to basolateral direction (A→B) and basolateral to apical direction (B→A) across the cell monolayer provides a ratio of B→A/A→B (efflux ratio; “ER”). Unlike the Caco-2 assay, the MDCK-MDR1 assay is not subject to potential efflux interference by breast cancer resistance protein (BCRP). […] The data may further be used to predict blood brain barrier (BBB) permeability via calculation from the data of log(permeability-surface area product) (“log PS”), well-understood to be predictive of the in vivo log([brain concentration]/[plasma concentration]).

Series [3] is described as follows: in vivo unbound brain to plasma ratio (Kpuu) at steady state. To be noted: rat, brain and plasma (unbound), continuous intravenous infusion over 24 hours, Sprague Dawley rats, free drug in brain vs plasma. The method, then: Compounds of the present technology are predicted to show BBB passage according to internal proprietary predictive models. These predictive models were further verified by in vivo experiments. In particular, in vivo unbound brain to plasma ratio (Kpuu) was measured at steady state by comparison of free drug concentrations (protein binding corrected) in brain and plasma after continuous intravenous infusion in Sprague Dawley rats over 24 hours, where a Kpuu of >0.3 represents good brain exposure of the compound.

The subject of the next series is tumors. To be noted: literature statement; cited from earlier work.

human MDR1 (P-glycoprotein; P-gp), sequence (P08183 whole entry): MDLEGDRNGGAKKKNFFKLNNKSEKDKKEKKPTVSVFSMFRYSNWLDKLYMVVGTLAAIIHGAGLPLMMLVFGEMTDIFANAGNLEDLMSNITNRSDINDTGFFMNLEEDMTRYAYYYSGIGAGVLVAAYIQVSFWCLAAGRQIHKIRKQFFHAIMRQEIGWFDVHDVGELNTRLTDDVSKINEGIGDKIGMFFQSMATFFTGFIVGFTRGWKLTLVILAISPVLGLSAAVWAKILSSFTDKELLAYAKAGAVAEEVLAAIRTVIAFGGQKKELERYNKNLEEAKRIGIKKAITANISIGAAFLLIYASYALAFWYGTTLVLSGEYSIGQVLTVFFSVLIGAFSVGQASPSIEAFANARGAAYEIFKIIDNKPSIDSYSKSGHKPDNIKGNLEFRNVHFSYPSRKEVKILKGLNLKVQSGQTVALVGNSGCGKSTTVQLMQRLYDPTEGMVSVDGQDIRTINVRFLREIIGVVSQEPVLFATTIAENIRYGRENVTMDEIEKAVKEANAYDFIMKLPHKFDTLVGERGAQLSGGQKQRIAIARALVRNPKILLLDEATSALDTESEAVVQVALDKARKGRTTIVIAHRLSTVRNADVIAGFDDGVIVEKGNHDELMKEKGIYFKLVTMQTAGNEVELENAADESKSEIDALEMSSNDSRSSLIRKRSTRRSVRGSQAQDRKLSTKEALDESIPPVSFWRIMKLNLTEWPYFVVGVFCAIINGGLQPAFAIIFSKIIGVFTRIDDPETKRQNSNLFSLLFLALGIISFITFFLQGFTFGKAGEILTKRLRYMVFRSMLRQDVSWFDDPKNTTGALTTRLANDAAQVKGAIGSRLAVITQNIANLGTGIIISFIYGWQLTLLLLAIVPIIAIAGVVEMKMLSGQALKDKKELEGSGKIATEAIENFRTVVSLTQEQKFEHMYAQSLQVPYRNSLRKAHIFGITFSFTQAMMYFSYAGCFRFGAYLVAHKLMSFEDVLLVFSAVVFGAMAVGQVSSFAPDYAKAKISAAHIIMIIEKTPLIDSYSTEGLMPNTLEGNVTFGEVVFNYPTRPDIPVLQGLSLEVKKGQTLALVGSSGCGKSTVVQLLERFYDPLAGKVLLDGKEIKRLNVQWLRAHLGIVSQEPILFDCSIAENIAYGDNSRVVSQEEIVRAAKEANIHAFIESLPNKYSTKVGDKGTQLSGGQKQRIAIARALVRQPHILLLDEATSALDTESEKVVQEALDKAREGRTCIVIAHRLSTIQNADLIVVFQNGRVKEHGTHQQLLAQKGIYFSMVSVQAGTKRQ

Regarding `NC(=O)c1cccc2cn(-c3ccc([C@@H]4CCCNC4)cc3)nc12` [niraparib], the “central nervous system (CNS) penetration” value in series [1] is recorded as “do not have good central nervous system (CNS) penetration”.
On to `Cn1ncnc1[C@H]1c2n[nH]c(=O)c3cc(F)cc(c23)N[C@@H]1c1ccc(F)cc1` [talazoparib], for which the “central nervous system (CNS) penetration” value in series [1] is “do not have good central nervous system (CNS) penetration”.
Turning to `C[C@@H]1Nc2cc(F)cc3c(=O)[nH]nc(c23)[C@H]1c1ccc(F)cc1F` [Compound 0174B, (8S,9S)-9-(2,4-difluorophenyl)-5-fluoro-8-methyl-2,7,8,9-tetrahydro-3H-pyrido[4,3,2-de]phthalazin-3-one], the pIC50 on PARP1 enzyme was 8.10. Moreover, in series [2], the Papp A→B was found to be 13.8 ×10⁻⁶ cm/s and the efflux ratio came to 0.654. Also, the Kp uu at 24 h in series [3] came to 0.591.
On to `O=C(c1cc(Cc2n[nH]c(=O)c3ccccc23)ccc1F)N1CCN(C(=O)C2CC2)CC1` [olaparib], for which the “central nervous system (CNS) penetration” value in series [1] is “do not have good central nervous system (CNS) penetration”.
On to `CNCc1ccc(-c2[nH]c3cc(F)cc4c3c2CCNC4=O)cc1` [rucaparib], for which the “central nervous system (CNS) penetration” value in series [1] is on record as “do not have good central nervous system (CNS) penetration”.
`O=c1[nH]nc2c3c(cc(F)cc13)NC[C@@H]2c1ccc(F)cc1F` [Compound 0114B, (S)-9-(2,4-difluorophenyl)-5-fluoro-2,7,8,9-tetrahydro-3H-pyrido[4,3,2-de]phthalazin-3-one]: on PARP1 enzyme, the pIC50 was 7.39. In series [2], the apparent permeability from apical to basolateral (Papp A→B) came out at 18.6 ×10⁻⁶ cm/s and the efflux ratio came to 0.55. Besides, in series [3], the Kp uu at 24 h stood at 0.921.
On PARP1 enzyme, `O=c1[nH]nc2c3c(cc(F)cc13)NC[C@@H]2c1ccccc1Cl` [Compound 0120B, (S)-9-(2-chlorophenyl)-5-fluoro-2,7,8,9-tetrahydro-3H-pyrido[4,3,2-de]phthalazin-3-one] gave a pIC50 of 7.33. Further, in series [2], the Papp A→B was found to be 13.3 ×10⁻⁶ cm/s and the efflux ratio came out at 0.612.
`O=c1[nH]nc2c3c(cc(F)cc13)N[C@H]([C@H]1CCOC1)[C@H]2c1ccccc1Cl` [Compound 0121A] gave a pIC50 against PARP1 enzyme of 7.49. In series [2], the “MDCK-MDR1 Papp A→B (10^−6 cm/s)” value is 5.66 10^−6 cm/s and the “MDCK-MDR1 ER” value is given as 3.06.
In the case of `O=c1[nH]nc2c3c(cc(F)cc13)NC[C@@H]2c1ccc(Cl)cc1F` [Compound 0189B], the pIC50 against PARP1 enzyme was 7.54. Further, in series [2], the “MDCK-MDR1 Papp A→B (10^−6 cm/s)” value is given as 15.6 10^−6 cm/s and the “MDCK-MDR1 ER” value came out at 0.538.
Taken in the same sequence, the figures for `CC[C@@H]1Nc2cc(F)cc3c(=O)[nH]nc(c23)[C@H]1c1ccccc1Cl` [Compound 0206A, (11S,12S)-12-(2-chlorophenyl)-11-ethyl-7-fluoro-2,3,10-triazatricyclo[7.3.1.0^{5,13}]trideca-1,5(13),6,8-tetraen-4-one] were 8.05, 13.4 10^−6 cm/s and 0.695.
On the same counts, the results for `O=c1[nH]nc2c3c(cc(F)cc13)N[C@@H](C1CC1)[C@@H]2c1ccccc1Cl` [Compound 0207A, (11S,12S)-12-(2-chlorophenyl)-11-cyclopropyl-7-fluoro-2,3,10-triazatricyclo[7.3.1.0^{5,13}]trideca-1,5(13),6,8-tetraen-4-one] are 7.19, 9.65 10^−6 cm/s and 0.741.
`C[C@H]1Nc2cc(F)cc3c(=O)[nH]nc(c23)[C@@H]1c1ccc(F)cc1F` [Compound 0174A, (8R,9R)-9-(2,4-difluorophenyl)-5-fluoro-8-methyl-2,7,8,9-tetrahydro-3H-pyrido[4,3,2-de]phthalazin-3-one] had a negative-log IC50 (pIC50) against PARP1 enzyme of 7.44. Further, in series [2], the Papp A→B came to 14 ×10⁻⁶ cm/s and the efflux ratio turned out to be 0.532.
As for `C[C@]1(c2nc3c(C(N)=O)cccc3[nH]2)CCCN1` [veliparib], the efficacy in tumors result in the series on tumors is given as “not efficacious in most tumors”.
